Test results: US20240132431A1, “METHOD FOR ALKYLATING ACIDIC FUNCTIONAL GROUP” (Chugai Seiyaku Kabushiki Kaisha, priority 2021, published 2024)
Blank lines part the entries; values can stand above or below the molecule they belong to.

Target: T1, Bcl-2 protein (Recombinant Human Bcl-2 Protein) (Homo sapiens, UniProt P10415)
T1 construct: purchased Novus NBP2-34889
Assay: Binding evaluation of mixture library compounds to Bcl-2 using AS-MS (affinity selection mass spectrometry)
Conditions: AS-MS, mixture library, Bcl-2, ASMS Ratio(%)=(A−C)/B×100; for ASMS ratio (%) n = 1: replicate n = 1; for ASMS ratio (%) n = 2: replicate n = 2
In short: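 Bcl-2 binding is scored from LC/MS signal retained with protein through gel-filtration spin columns, normalised to unfiltered and protein-free controls. Incubation: 20 μM protein, […] per compound, 1 h, 23° C.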

T1 sequence (P10415 whole entry): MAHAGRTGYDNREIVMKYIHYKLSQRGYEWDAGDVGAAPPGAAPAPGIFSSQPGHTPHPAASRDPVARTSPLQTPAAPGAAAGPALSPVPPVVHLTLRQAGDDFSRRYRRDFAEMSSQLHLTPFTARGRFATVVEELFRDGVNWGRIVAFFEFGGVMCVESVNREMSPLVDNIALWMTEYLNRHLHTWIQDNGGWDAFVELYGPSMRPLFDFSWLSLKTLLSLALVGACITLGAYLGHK

Structure (SMILES): CCOc1cccc(-c2cc(CN3CCN(c4ccc(C(=O)NS(=O)(=O)CC56CC7CC(CC(C7)C5)C6)cc4)CC3)cc(OC(C)C)c2)c1 [B2A057-01, N-(1-Adamantylmethylsulfonyl)-4-[4-[[3-(3-ethoxyphenyl)-5-propan-2-yloxyphenyl]methyl]piperazin-1-yl]benzamide]
ASMS ratio (%) n = 1: −4.8% | ASMS ratio (%) n = 2: −5.3%

Structure (SMILES): CCOc1cncc(-c2cc(CN3CCN(c4ccc(C(=O)NS(=O)(=O)CC56CC7CC(CC(C7)C5)C6)cc4)CC3)cc(OC(C)C)c2)c1 [B2A058-01, N-(1-Adamantylmethylsulfonyl)-4-[4-[[3-(5-ethoxypyridin-3-yl)-5-propan-2-yloxyphenyl]methyl]piperazin-1-yl]benzamide]
ASMS ratio (%) n = 1: 4.8% | ASMS ratio (%) n = 2: −10.6%

Structure (SMILES): CCOc1cccc(-c2cc(OC)c(CN3CCN(c4ccc(C(=O)NS(=O)(=O)CC56CC7CC(CC(C7)C5)C6)cc4)CC3)c(OC)c2)c1 [B2A059-01, N-(1-Adamantylmethylsulfonyl)-4-[4-[[4-(3-ethoxyphenyl)-2,6-dimethoxyphenyl]methyl]piperazin-1-yl]benzamide]
ASMS ratio (%) n = 1: 0.0% | ASMS ratio (%) n = 2: −42.2%

Structure (SMILES): CCOc1cncc(-c2cc(OC)c(CN3CCN(c4ccc(C(=O)NS(=O)(=O)CC56CC7CC(CC(C7)C5)C6)cc4)CC3)c(OC)c2)c1 [B2A060-01, N-(1-Adamantylmethylsulfonyl)-4-[4-[[4-(5-ethoxypyridin-3-yl)-2,6-dimethoxyphenyl]methyl]piperazin-1-yl]benzamide]
ASMS ratio (%) n = 1: 0.0% | ASMS ratio (%) n = 2: 0.0%

Structure (SMILES): CCOc1cccc(-c2cc(CN3CCN(c4ccc(C(=O)NS(=O)(=O)CC56CC7CC(CC(C7)C5)C6)cc4)CC3)cc(C(F)(F)F)c2)c1 [B2A061-01, N-(1-Adamantylmethylsulfonyl)-4-[4-[[3-(3-ethoxyphenyl)-5-(trifluoromethyl)phenyl]methyl]piperazin-1-yl]benzamide]
ASMS ratio (%) n = 1: 1.7% | ASMS ratio (%) n = 2: −5.6%

Structure (SMILES): CCOc1cncc(-c2cc(CN3CCN(c4ccc(C(=O)NS(=O)(=O)CC56CC7CC(CC(C7)C5)C6)cc4)CC3)cc(C(F)(F)F)c2)c1 [B2A062-01, N-(1-Adamantylmethylsulfonyl)-4-[4-[[3-(5-ethoxypyridin-3-yl)-5-(trifluoromethyl)phenyl]methyl]piperazin-1-yl]benzamide]
ASMS ratio (%) n = 1: −5.2% | ASMS ratio (%) n = 2: 3.6%

Structure (SMILES): CCOc1cccc(-c2cc(CN3CCN(c4ccc(C(=O)NS(=O)(=O)CC56CC7CC(CC(C7)C5)C6)cc4)CC3)cc(OC(F)(F)F)c2)c1 [B2A063-01, N-(1-Adamantylmethylsulfonyl)-4-[4-[[3-(3-ethoxyphenyl)-5-(trifluoromethoxy)phenyl]methyl]piperazin-1-yl]benzamide]
ASMS ratio (%) n = 1: 0.5% | ASMS ratio (%) n = 2: 3.3%

Structure (SMILES): CCOc1cncc(-c2ccc(CN3CCN(c4ccc(C(=O)NS(=O)(=O)CC56CC7CC(CC(C7)C5)C6)cc4)CC3)c3ccccc23)c1 [B2A066-01, N-(1-Adamantylmethylsulfonyl)-4-[4-[[4-(5-ethoxypyridin-3-yl)naphthalen-1-yl]methyl]piperazin-1-yl]benzamide]
ASMS ratio (%) n = 1: 3.2% | ASMS ratio (%) n = 2: 0.0%

Structure (SMILES): CCOc1cncc(-c2csc(CN3CCN(c4ccc(C(=O)NS(=O)(=O)CC56CC7CC(CC(C7)C5)C6)cc4)CC3)c2)c1 [B2A068-01, N-(1-Adamantylmethylsulfonyl)-4-[4-[[4-(5-ethoxypyridin-3-yl)thiophen-2-yl]methyl]piperazin-1-yl]benzamide]
ASMS ratio (%) n = 1: 0.0% | ASMS ratio (%) n = 2: 0.0%

Structure (SMILES): CCOc1cccc(C#Cc2ccccc2CN2CCN(c3ccc(C(=O)NS(=O)(=O)CC45CC6CC(CC(C6)C4)C5)cc3)CC2)c1 [B2A069-01, N-(1-Adamantylmethylsulfonyl)-4-[4-[[2-[2-(3-ethoxyphenyl)ethynyl]phenyl]methyl]piperazin-1-yl]benzamide]
ASMS ratio (%) n = 1: 4.6% | ASMS ratio (%) n = 2: −4.6%

Structure (SMILES): CCOc1cncc(-c2ccccc2CN2CCN(c3ccc(C(=O)NS(=O)(=O)CC45CC6CC(CC(C6)C4)C5)nn3)CC2)c1 [B2A072-01]
ASMS ratio (%) n = 1: 12.2% | ASMS ratio (%) n = 2: 14.7%

Structure (SMILES): CCOc1cccc(-c2ccc(CN3CCN(c4ccc(C(=O)NS(=O)(=O)CC56CC7CC(CC(C7)C5)C6)nn4)CC3)c(CC)c2)c1 [B2A075-01, N-(1-Adamantylmethylsulfonyl)-6-[4-[[4-(3-ethoxyphenyl)-2-ethylphenyl]methyl]piperazin-1-yl]pyridazine-3-carboxamide]
ASMS ratio (%) n = 1: 4.6% | ASMS ratio (%) n = 2: 4.4%

Structure (SMILES): CCOc1cncc(-c2ccc(CN3CCN(c4ccc(C(=O)NS(=O)(=O)CC56CC7CC(CC(C7)C5)C6)nn4)CC3)c(CC)c2)c1 [B2A076-01, N-(1-Adamantylmethylsulfonyl)-6-[4-[[4-(5-ethoxypyridin-3-yl)-2-ethylphenyl]methyl]piperazin-1-yl]pyridazine-3-carboxamide]
ASMS ratio (%) n = 1: 23.4% | ASMS ratio (%) n = 2: 11.4%

Structure (SMILES): CCOc1cccc(-c2ccc(CN3CCN(c4ccc(C(=O)NS(=O)(=O)CC56CC7CC(CC(C7)C5)C6)nn4)CC3)cc2F)c1 [B2A077-01, N-(1-Adamantylmethylsulfonyl)-6-[4-[[4-(3-ethoxyphenyl)-3-fluorophenyl]methyl]piperazin-1-yl]pyridazine-3-carboxamide]
ASMS ratio (%) n = 1: 14.3% | ASMS ratio (%) n = 2: 21.9%

Structure (SMILES): CCOc1cncc(-c2ccc(CN3CCN(c4ccc(C(=O)NS(=O)(=O)CC56CC7CC(CC(C7)C5)C6)nn4)CC3)cc2F)c1 [B2A078-01, N-(1-Adamantylmethylsulfonyl)-6-[4-[[4-(5-ethoxypyridin-3-yl)-3-fluorophenyl]methyl]piperazin-1-yl]pyridazine-3-carboxamide]
ASMS ratio (%) n = 1: 15.2% | ASMS ratio (%) n = 2: 9.3%

Structure (SMILES): CCOc1cncc(-c2ccc(CN3CCN(c4ccc(C(=O)NS(=O)(=O)CC56CC7CC(CC(C7)C5)C6)nn4)CC3)c(OC)c2)c1 [B2A080-01, N-(1-Adamantylmethylsulfonyl)-6-[4-[[4-(5-ethoxypyridin-3-yl)-2-methoxyphenyl]methyl]piperazin-1-yl]pyridazine-3-carboxamide]
ASMS ratio (%) n = 1: 0.0% | ASMS ratio (%) n = 2: 0.0%

Structure (SMILES): CCOc1cccc(-c2cc(CN3CCN(c4ccc(C(=O)NS(=O)(=O)CC56CC7CC(CC(C7)C5)C6)nn4)CC3)cc(OC(C)C)c2)c1 [B2A083-01, N-(1-Adamantylmethylsulfonyl)-6-[4-[[3-(3-ethoxyphenyl)-5-propan-2-yloxyphenyl]methyl]piperazin-1-yl]pyridazine-3-carboxamide]
ASMS ratio (%) n = 1: 10.3% | ASMS ratio (%) n = 2: 0.0%

Further lines, results first:

ASMS ratio (%) n = 1: 0.0% | ASMS ratio (%) n = 2: −0.3%
Structure (SMILES): CCOc1cncc(-c2cc(CN3CCN(c4ccc(C(=O)NS(=O)(=O)CC56CC7CC(CC(C7)C5)C6)cc4)CC3)cc(OC(F)(F)F)c2)c1 [B2A064-01, N-(1-Adamantylmethylsulfonyl)-4-[4-[[3-(5-ethoxypyridin-3-yl)-5-(trifluoromethoxy)phenyl]methyl]piperazin-1-yl]benzamide]

ASMS ratio (%) n = 1: 10.5% | ASMS ratio (%) n = 2: −2.9%
Structure (SMILES): CCOc1cccc(-c2ccc(CN3CCN(c4ccc(C(=O)NS(=O)(=O)CC56CC7CC(CC(C7)C5)C6)cc4)CC3)c3ccccc23)c1 [B2A065-01, N-(1-Adamantylmethylsulfonyl)-4-[4-[[4-(3-ethoxyphenyl)naphthalen-1-yl]methyl]piperazin-1-yl]benzamide]

ASMS ratio (%) n = 1: 0.0% | ASMS ratio (%) n = 2: 0.0%
Structure (SMILES): CCOc1cccc(-c2csc(CN3CCN(c4ccc(C(=O)NS(=O)(=O)CC56CC7CC(CC(C7)C5)C6)cc4)CC3)c2)c1 [B2A067-01, N-(1-Adamantylmethylsulfonyl)-4-[4-[[4-(3-ethoxyphenyl)thiophen-2-yl]methyl]piperazin-1-yl]benzamide]

ASMS ratio (%) n = 2: 0.0%
Structure (SMILES): CCOc1cncc(C#Cc2ccccc2CN2CCN(c3ccc(C(=O)NS(=O)(=O)CC45CC6CC(CC(C6)C4)C5)cc3)CC2)c1 [B2A070-01, N-(1-Adamantylmethylsulfonyl)-4-[4-[[2-[2-(5-ethoxypyridin-3-yl)ethynyl]phenyl]methyl]piperazin-1-yl]benzamide]

ASMS ratio (%) n = 1: 16.1% | ASMS ratio (%) n = 2: 5.6%
Structure (SMILES): CCOc1cccc(-c2ccccc2CN2CCN(c3ccc(C(=O)NS(=O)(=O)CC45CC6CC(CC(C6)C4)C5)nn3)CC2)c1 [B2A071-01, N-(1-Adamantylmethylsulfonyl)-6-[4-[[2-(3-ethoxyphenyl)phenyl]methyl]piperazin-1-yl]pyridazine-3-carboxamide]

ASMS ratio (%) n = 1: 16.2% | ASMS ratio (%) n = 2: 13.5%
Structure (SMILES): CCOc1cccc(-c2ccc(CN3CCN(c4ccc(C(=O)NS(=O)(=O)CC56CC7CC(CC(C7)C5)C6)nn4)CC3)cc2C)c1 [B2A073-01, N-(1-Adamantylmethylsulfonyl)-6-[4-[[4-(3-ethoxyphenyl)-3-methylphenyl]methyl]piperazin-1-yl]pyridazine-3-carboxamide]

ASMS ratio (%) n = 1: 9.2% | ASMS ratio (%) n = 2: 1.9%
Structure (SMILES): CCOc1cncc(-c2ccc(CN3CCN(c4ccc(C(=O)NS(=O)(=O)CC56CC7CC(CC(C7)C5)C6)nn4)CC3)cc2C)c1 [B2A074-01, N-(1-Adamantylmethylsulfonyl)-6-[4-[[4-(5-ethoxypyridin-3-yl)-3-methylphenyl]methyl]piperazin-1-yl]pyridazine-3-carboxamide]

ASMS ratio (%) n = 1: 18.6% | ASMS ratio (%) n = 2: 16.7%
Structure (SMILES): CCOc1cccc(-c2cc(CN3CCN(c4ccc(C(=O)NS(=O)(=O)CC56CC7CC(CC(C7)C5)C6)nn4)CC3)cc(OCC)c2)c1 [B2A081-01, N-(1-Adamantylmethylsulfonyl)-6-[4-[[3-ethoxy-5-(3-ethoxyphenyl)phenyl]methyl]piperazin-1-yl]pyridazine-3-carboxamide]
